Assay results as given in US20190352638A1, “THERAPEUTIC MODULATION OF C-FOS IN THE EYE” (Children's Medical Center Corporation, priority 2016, published 2019).

What was measured:
AP-1 = conditions: without activating transcription of retinoic acid response element; Fanjul et al. 1994; cited from earlier work
[1] = tested on: c-fos and its target genes (Mmp10, Il6, IlIb and Tnf); experiment: Quantitative RT-PCR of retinal mRNA; type: in vivo, mouse; conditions: oral gavage 1 mg/kg daily P5 to P15; Vldlr^−/− retinas
Protocol: (§1) All animal studies were performed according to protocols approved by the Institutional Animal Care and Use Committee at the Boston Children's Hospital. Vldlr^+/− (heterozygous) mice from Jackson Laboratory (Stock #002529) were bred to generate homozygous and wild type littermates. SR11302 (TOCRIS, Cat. 2476) was dissolved in corn oil. Vldlr^−/− pups were orally gavaged with SR11302 or corn oil as control at a dose of 1 mg/kg body weight daily from P5 to P15. P16 retinas were collected for PCR and neovascularization analysis.
Total RNA was extracted from mouse retinas using RNeasy kit (Qiagen) and reverse-transcribed with SuperScript® III Reverse Transcriptase (Thermo Fisher) to generate cDNA. Quantitative PCR was performed using a 7300 system (Applied Biosystems) with KAPA SYBR FAST qPCR Kits (Kapa Biosystems) using Rhodopsin, Pecam, Vldlr, CD68, CD11b, CD45, c-Fos, Il6, Il11b, Tnf, mmp10, Socs3, uPA, c-Jun, VEGF120, VEGF164, VEGF188 primers.
Subretinal injection into P0 neonate eyes was performed as previously described (Matsuda, T., et al., Proc. Nat. Acad. Sci. USA 101, 16-22 (2004), and Wang, S., et al., Developmental cell 30, 513-527 (2014)) under a dissection microscope. P0 Vldlr^−/− or wild type pups were anesthetized on ice for several minutes. The eyelid was prepped with Betadine, followed by water, then 70% ethanol using cotton swabs. […]

Vldlr^−/− mice = experiment: Neovascularization analysis (lesion number and size) in Vldlr^−/− retina whole mounts; type: in vivo, mouse
Protocol: as §1
Vldlr^−/− and wild type retina whole mounts were stained with isolectin IB4 and imaged with AxioObserver Z1 microscope (Zeiss) with a monochrome digital camera (AxioCam MRm; Zeiss) focusing on the terminal end of lesions on the RPE layer (usually at P16), and individual images were merged to create one retinal image using the automated merge function (mosaiX; Zeiss) in the software (AxioVision 4.6.3.0; Zeiss). Image J was used for quantification of subretinal neovascularization lesion number and areas in Vldlr^−/− retinas (National Institutes of Health, imagej.nih.gov/ij/) with designed plugins adapted from the method used to measure retinal neovascularization (SWIFT_NV) in the OIR model (Stahl, A. et al., Angiogenesis 12, 297-301 (2009)) which use a user-designated threshold to mark lesion structures that clearly stand out from background fluorescence of normal vessels, and can automatically remove small artifacts by selecting objects with a minimum size of 100 pixels. Other larger artifacts such as occasional cellular debris or retinal periphery with hyperfluorescence can be manually excluded from quantification. Lesion numbers and areas were quantified with researchers masked to the identity of samples.
At P16, mice were anesthetized, the eyes were enucleated and fixed in 4% paraformaldehyde followed by dissection and staining of the retinas with fluoresceinated isolectin IB4 (Invitrogen) to visualize subretinal neovascularization in whole mounted retinas. 3D reconstructed images were taken with confocal microscopy (Leica TCS SP2 AOBS) and z-stacks were 3D reconstructed using Volocity software (Perkin Elmer).
Subretinal injection into P0 neonate eyes was performed as previously described (Matsuda, T., et al., Proc. Nat. Acad. Sci. USA 101, 16-22 (2004), and Wang, S., et al., Developmental cell 30, 513-527 (2014)) under a dissection microscope. P0 Vldlr^−/− or wild type pups were anesthetized on ice for several minutes. The eyelid was prepped with Betadine, followed by water, then 70% ethanol using cotton swabs. A blade was used to gently cut open the eyelid. The injection needle was inserted into the eyeball through the incision until slight resistance was felt. Approximately 0.5 μl solution containing siRNA/siControl or AAV2/Control (10^12-10^13 gc/ml) was introduced into the subretinal space using a pulled angled glass pipette controlled by a FemtoJet (Eppendorf). The left eyes were uninjected for within-animal controls. Curved forceps were used to slowly close the eyelid. Mice were placed on a circulating water blanket for warmth. The retinas were collected at P12 for PCR assay and P16 for whole mount analysis.

[2] = oral gavage 1 mg/kg daily P5 to P15, Vldlr^−/− mice
[3] = oral gavage, Vldlr^−/− retinas vs controls

Q: Which results are given for CC1=C(/C=C/C(=C/C=C/C(C)=C/C(=O)O)c2ccc(C)cc2)C(C)(C)CCC1 [SR11302, (E,E,Z,E)-3-Methyl-7-(4-methylphenyl)-9-(2,6,6-trimethyl-1-cyclohexen-1-yl)-2,4,6,8-nonatetraenoic acid]?
A: AP-1 activity (AP-1): specifically inhibits; c-FOS target genes (Il6, IlIb and Tnf) mRNA [1]: reduced; c-fos expression itself [1]: without influencing; lesion size decreased (Vldlr^−/− mice; [2]): 40%; total lesion number reduced (Vldlr^−/− mice; [2]): 48%; neovascularization (in words) (Vldlr^−/− mice; [3]): inhibited; total lesion number (in words) (Vldlr^−/− mice; [3]): reduced; total lesion size (in words) (Vldlr^−/− mice; [3]): reduced
